From US20250215030A1, “STAT MODULATORS AND USES THEREOF” (Recludix Pharma, Inc., priority 2022, published 2025)

Experiments:
[1] = molecular target: T1, Recombinant STAT3 protein (STAT3(G127-I722)) (Homo sapiens, UniProt P40763); assay: STAT3 Fluorescence Polarization (FP) Assay; format: binding; settings: STAT3(G127-I722) 25 nM, probe 5-FAM-GpYLPQTV-NH2 2 nM, 45-minute incubation
T1 construct: STAT3(G127-I722)
Procedure, shortened: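 Serially diluted compounds (1% DMSO) were mixed with 2 nM fluorescent phosphotyrosine peptide and 25 nM STAT3 construct G127-I722, pH 7.4, incubated 45 min at room temperature. IC50 values from fitted polarization curves are reported as categories A (≤100 nM), B, C, D (>10 μM).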

[2] = molecular target: T2, Recombinant STAT6 protein (STAT6(W123-T658)) (Homo sapiens, UniProt P42226); assay: STAT6 Fluorescence Polarization (FP) Assay; format: binding; settings: STAT6(W123-T658) 250 nM, probe 5-FAM-ApYKPFQDLI-NH2 2 nM, 45-minute incubation
T2 construct: STAT6(W123-T658)
T2 sequence (P42226 123-658): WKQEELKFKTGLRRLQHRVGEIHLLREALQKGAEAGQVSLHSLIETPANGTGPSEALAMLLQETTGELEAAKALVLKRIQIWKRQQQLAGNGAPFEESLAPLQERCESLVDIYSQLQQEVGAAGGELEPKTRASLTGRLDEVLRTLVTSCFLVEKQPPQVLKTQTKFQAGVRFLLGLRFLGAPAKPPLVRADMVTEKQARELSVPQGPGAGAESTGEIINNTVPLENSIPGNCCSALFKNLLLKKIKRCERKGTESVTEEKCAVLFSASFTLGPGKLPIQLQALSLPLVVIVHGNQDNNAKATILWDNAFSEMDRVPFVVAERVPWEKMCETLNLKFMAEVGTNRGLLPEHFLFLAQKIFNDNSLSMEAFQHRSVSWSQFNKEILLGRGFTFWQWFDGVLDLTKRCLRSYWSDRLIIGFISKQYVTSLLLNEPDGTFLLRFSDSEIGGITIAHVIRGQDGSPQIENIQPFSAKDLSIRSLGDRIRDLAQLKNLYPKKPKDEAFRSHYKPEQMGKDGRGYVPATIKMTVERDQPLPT
Procedure, shortened: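 Competitive displacement of a fluorescent phosphotyrosine peptide (2 nM) from recombinant STAT6 W123-T658 (250 nM), 45 min at room temperature in 10 mM HEPES pH 7.4, 50 mM NaCl, 2 mM DTT. mP fitted against log compound for IC50, grouped A (≤300 nM) to D (>30 μM).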

T1 sequence (P40763 127-722, species assumed): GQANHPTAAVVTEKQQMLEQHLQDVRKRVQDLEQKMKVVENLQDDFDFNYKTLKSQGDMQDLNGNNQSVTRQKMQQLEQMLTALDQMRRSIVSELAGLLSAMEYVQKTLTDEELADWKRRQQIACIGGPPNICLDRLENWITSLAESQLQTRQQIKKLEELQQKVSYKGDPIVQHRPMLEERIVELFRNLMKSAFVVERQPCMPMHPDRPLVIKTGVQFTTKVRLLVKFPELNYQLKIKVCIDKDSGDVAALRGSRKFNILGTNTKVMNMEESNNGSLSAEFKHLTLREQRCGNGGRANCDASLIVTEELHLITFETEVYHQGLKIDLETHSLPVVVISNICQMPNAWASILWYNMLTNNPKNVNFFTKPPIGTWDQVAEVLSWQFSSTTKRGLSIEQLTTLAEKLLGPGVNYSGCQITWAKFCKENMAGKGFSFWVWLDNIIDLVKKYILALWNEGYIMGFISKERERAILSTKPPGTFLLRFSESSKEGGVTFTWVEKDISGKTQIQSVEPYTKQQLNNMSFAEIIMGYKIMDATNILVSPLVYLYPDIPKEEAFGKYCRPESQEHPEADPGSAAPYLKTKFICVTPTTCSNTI

O=C(N[C@H]1C[C@@H]2C[C@@H]2C[C@H]2CC[C@@H](C(=O)N[C@H]3CN(c4ncccn4)C[C@@H]3F)N2C1=O)c1cc2cc(CP(=O)(O)O)ccc2s1 [Example 257, ((2-(((3S,6S,7aS,8aR,9aR)-3-(((3S,4S)-4-fluoro-1-(pyrimidin-2-yl)pyrrolidin-3-yl)carbamoyl)-5-oxodecahydro-1H-cyclopropa[d]pyrrolo[1,2-a]azocin-6-yl)carbamoyl)benzo[b]thiophen-5-yl)methyl)phosphonic acid]
IC50 [1]: > 10 µM | IC50 [2]: 3 to 30 µM

CC(=O)N1CC2C1CCN2C(=O)[C@@H]1CC[C@@H]2C[C@H]3C[C@H]3C[C@H](NC(=O)c3cc4cc(C(F)(F)P(=O)(O)O)ccc4s3)C(=O)N21 (stereo partly drawn) [Example 258, ((2-(((3S,6S,7aS,8aR,9aR)-3-(6-acetyl-2,6-diazabicyclo[3.2.0]heptane-2-carbonyl)-5-oxodecahydro-1H-cyclopropa[d]pyrrolo[1,2-a]azocin-6-yl)carbamoyl)benzo[b]thiophen-5-yl)difluoromethyl)phosphonic acid]
IC50 [1]: < 0.1 µM | IC50 [2]: 0.3 to 3 µM

O=C(N[C@H]1C[C@@H]2C[C@@H]2C[C@H]2CC[C@@H](C(=O)N3CCC4C3CN4c3cccnc3)N2C1=O)c1cc2cc(C(F)(F)P(=O)(O)O)ccc2s1 (stereo partly drawn) [Example 259, (difluoro(2-(((3S,6S,7aS,8aR,9aR)-5-oxo-3-(6-(pyridin-3-yl)-2,6-diazabicyclo[3.2.0]heptane-2-carbonyl)decahydro-1H-cyclopropa[d]pyrrolo[1,2-a]azocin-6-yl)carbamoyl)benzo[b]thiophen-5-yl)methyl)phosphonic acid]
IC50 [1]: < 0.1 µM | IC50 [2]: 0.3 to 3 µM

CC(=O)N1CC2C1CCN2C(=O)[C@@H]1CC[C@@H]2C[C@H]3C[C@H]3C[C@H](NC(=O)c3cc4cc(CP(=O)(O)O)ccc4s3)C(=O)N21 (stereo partly drawn) [Example 260, ((2-(((3S,6S,7aS,8aR,9aR)-3-(6-acetyl-2,6-diazabicyclo[3.2.0]heptane-2-carbonyl)-5-oxodecahydro-1H-cyclopropa[d]pyrrolo[1,2-a]azocin-6-yl)carbamoyl)benzo[b]thiophen-5-yl)methyl)phosphonic acid]
IC50 [1]: 1 to 10 µM | IC50 [2]: > 30 µM

O=C(N[C@H]1C[C@@H]2C[C@@H]2C[C@H]2CC[C@@H](C(=O)N3CCC4C3CN4c3cccnc3)N2C1=O)c1cc2cc(CP(=O)(O)O)ccc2s1 (stereo partly drawn) [Example 261, ((2-(((3S,6S,7aS,8aR,9aR)-5-oxo-3-(6-(pyridin-3-yl)-2,6-diazabicyclo[3.2.0]heptane-2-carbonyl)decahydro-1H-cyclopropa[d]pyrrolo[1,2-a]azocin-6-yl)carbamoyl)benzo[b]thiophen-5-yl)methyl)phosphonic acid]
IC50 [1]: 0.1 to 1 µM | IC50 [2]: 3 to 30 µM

O=C(N[C@H]1C[C@@H]2C[C@@H]2C[C@H]2CC[C@@H](C(=O)N3CC(c4cnccc4F)C3)N2C1=O)c1cc2cc(C(F)P(=O)(O)O)ccc2s1 (stereo partly drawn) [Example 262, (fluoro(2-(((3S,6S,7aS,8aR,9aR)-3-(3-(4-fluoropyridin-3-yl)azetidine-1-carbonyl)-5-oxodecahydro-1H-cyclopropa[d]pyrrolo[1,2-a]azocin-6-yl)carbamoyl)benzo[b]thiophen-5-yl)methyl)phosphonic acid]
IC50 [1]: < 0.1 µM | IC50 [2]: 0.3 to 3 µM

COc1ccncc1C1CN(C(=O)[C@@H]2CC[C@@H]3C[C@H]4C[C@H]4C[C@H](NC(=O)c4cc5cc(CP(=O)(O)O)ccc5s4)C(=O)N32)C1 [Example 265, ((2-(((3S,6S,7aS,8aR,9aR)-3-(3-(4-methoxypyridin-3-yl)azetidine-1-carbonyl)-5-oxodecahydro-1H-cyclopropa[d]pyrrolo[1,2-a]azocin-6-yl)carbamoyl)benzo[b]thiophen-5-yl)methyl)phosphonic acid]
IC50 [1]: < 0.1 µM | IC50 [2]: > 30 µM

CCc1ccncc1C1CN(C(=O)[C@@H]2CC[C@@H]3C[C@H]4C[C@H]4C[C@H](NC(=O)c4cc5cc(C(F)P(=O)(O)O)ccc5s4)C(=O)N32)C1 (stereo partly drawn) [Example 266, ((2-(((3S,6S,7aS,8aR,9aR)-3-(3-(4-ethylpyridin-3-yl)azetidine-1-carbonyl)-5-oxodecahydro-1H-cyclopropa[d]pyrrolo[1,2-a]azocin-6-yl)carbamoyl)benzo[b]thiophen-5-yl)fluoromethyl)phosphonic acid]
IC50 [1]: < 0.1 µM | IC50 [2]: 3 to 30 µM

O=C(N[C@H]1C[C@H]2C[C@H]2C[C@H]2CC[C@@H](C(=O)N[C@H]3CN(c4cccnc4)C[C@@H]3F)N2C1=O)c1cc2cc(C(F)P(=O)(O)O)ccc2s1 (stereo partly drawn) [Example 267, (fluoro(2-(((3S,6S,7aR,8aS,9aR)-3-(((3S,4S)-4-fluoro-1-(pyridin-3-yl)pyrrolidin-3-yl)carbamoyl)-5-oxodecahydro-1H-cyclopropa[d]pyrrolo[1,2-a]azocin-6-yl)carbamoyl)benzo[b]thiophen-5-yl)methyl)phosphonic acid]
IC50 [1]: < 0.1 µM | IC50 [2]: 0.3 to 3 µM

CC(=O)N1CCC2C1CN2C(=O)[C@@H]1CC[C@@H]2C[C@H]3C[C@H]3C[C@H](NC(=O)c3cc4cc(C(F)(F)P(=O)(O)O)ccc4s3)C(=O)N21 (stereo partly drawn) [Example 270, ((2-(((3S,6S,7aS,8aR,9aR)-3-(2-acetyl-2,6-diazabicyclo[3.2.0]heptane-6-carbonyl)-5-oxodecahydro-1H-cyclopropa[d]pyrrolo[1,2-a]azocin-6-yl)carbamoyl)benzo[b]thiophen-5-yl)difluoromethyl)phosphonic acid]
IC50 [1]: < 0.1 µM | IC50 [2]: 0.3 to 3 µM

CC(=O)N1CCC2C1CN2C(=O)[C@@H]1CC[C@@H]2C[C@H]3C[C@H]3C[C@H](NC(=O)c3cc4cc(CP(=O)(O)O)ccc4s3)C(=O)N21 (stereo partly drawn) [Example 271, ((2-(((3S,6S,7aS,8aR,9aR)-3-(2-acetyl-2,6-diazabicyclo[3.2.0]heptane-6-carbonyl)-5-oxodecahydro-1H-cyclopropa[d]pyrrolo[1,2-a]azocin-6-yl)carbamoyl)benzo[b]thiophen-5-yl)methyl)phosphonic acid]
IC50 [1]: 1 to 10 µM | IC50 [2]: > 30 µM

COc1ccncc1C1CN(C(=O)[C@@H]2CC[C@@H]3C[C@H]4C[C@H]4C[C@H](NC(=O)c4cc5cc(C(F)P(=O)(O)O)ccc5s4)C(=O)N32)C1 (stereo partly drawn) [Example 272, (fluoro(2-(((3S,6S,7aS,8aR,9aR)-3-(3-(4-methoxypyridin-3-yl)azetidine-1-carbonyl)-5-oxodecahydro-1H-cyclopropa[d]pyrrolo[1,2-a]azocin-6-yl)carbamoyl)benzo[b]thiophen-5-yl)methyl)phosphonic acid]
IC50 [1]: < 0.1 µM | IC50 [2]: 3 to 30 µM

CC(=O)N1C[C@H](NC(=O)[C@@H]2CC[C@@H]3C[C@]4(C)C[C@@H]4C[C@H](NC(=O)c4cc5cc(CP(=O)(O)O)ccc5s4)C(=O)N32)[C@@H](F)C1 [Example 273, ((2-(((3S,6S,7aR,8aS,9aR)-3-(((3S,4S)-1-acetyl-4-fluoropyrrolidin-3-yl)carbamoyl)-8a-methyl-5-oxodecahydro-1H-cyclopropa[d]pyrrolo[1,2-a]azocin-6-yl)carbamoyl)benzo[b]thiophen-5-yl)methyl)phosphonic acid]
IC50 [1]: 1 to 10 µM | IC50 [2]: 3 to 30 µM

O=C(N[C@H]1C[C@@H]2C[C@@H]2C[C@H]2CC[C@@H](C(=O)N3CC4C3CCN4c3cccnc3)N2C1=O)c1cc2cc(C(F)(F)P(=O)(O)O)ccc2s1 (stereo partly drawn) [Example 274, (difluoro(2-(((3S,6S,7aS,8aR,9aR)-5-oxo-3-(2-(pyridin-3-yl)-2,6-diazabicyclo[3.2.0]heptane-6-carbonyl)decahydro-1H-cyclopropa[d]pyrrolo[1,2-a]azocin-6-yl)carbamoyl)benzo[b]thiophen-5-yl)methyl)phosphonic acid]
IC50 [1]: < 0.1 µM | IC50 [2]: 0.3 to 3 µM

O=C(N[C@H]1C[C@@H]2C[C@@H]2C[C@H]2CC[C@@H](C(=O)N3CC4C3CCN4c3cccnc3)N2C1=O)c1cc2cc(CP(=O)(O)O)ccc2s1 (stereo partly drawn) [Example 275, ((2-(((3S,6S,7aS,8aR,9aR)-5-oxo-3-(2-(pyridin-3-yl)-2,6-diazabicyclo[3.2.0]heptane-6-carbonyl)decahydro-1H-cyclopropa[d]pyrrolo[1,2-a]azocin-6-yl)carbamoyl)benzo[b]thiophen-5-yl)methyl)phosphonic acid]
IC50 [1]: 0.1 to 1 µM | IC50 [2]: 3 to 30 µM

O=C(N[C@H]1C[C@@H]2C[C@@H]2C[C@H]2CC[C@@H](C(=O)N[C@H]3CNC[C@@H]3F)N2C1=O)c1cc2cc(CP(=O)(O)O)ccc2s1 [Example 276, ((2-(((3S,6S,7aS,8aR,9aR)-3-(((3S,4S)-4-fluoropyrrolidin-3-yl)carbamoyl)-5-oxodecahydro-1H-cyclopropa[d]pyrrolo[1,2-a]azocin-6-yl)carbamoyl)benzo[b]thiophen-5-yl)methyl)phosphonic acid]
IC50 [1]: 1 to 10 µM | IC50 [2]: > 30 µM
